Results published in PMC5867624, “Molecular Characterization of a Novel N-Acetylneuraminate Lyase from a Deep-Sea Symbiotic Mycoplasma” (Marine Drugs, 2018).

Key:
MyNal [1] = target: T1, MyNal (Mycoplasma sp., UniProt A0A2P1G7E2); experiment: HPLC of Neu5Ac formed, synthesis; set-up: gene nanA; details: synthesis direction; 20 mM pyruvate fixed; 20 mM phosphate pH 7.0; optimal temperature (65 °C)
MyNal [2] = target: T1, MyNal; experiment: LDH/NADH coupled spectrophotometric assay, […] nm, cleavage; type: biochemical; set-up: gene nanA; full-length gene (885 bp) in pET-32a(+), fusion tags kept, about 52 kDa, E. coli BL21(DE3), Ni-NTA; details: cleavage direction; 20 mM phosphate pH 7.0; optimal temperature and pH (optimum 70 °C)
CC(=O)C(=O)O = experiment: purified protein; details: synthesis direction, 20 mM ManNAc fixed, 20 mM phosphate pH 7.0, optimal temperature (65 °C)

T1 sequence (A0A2P1G7E2 1-294): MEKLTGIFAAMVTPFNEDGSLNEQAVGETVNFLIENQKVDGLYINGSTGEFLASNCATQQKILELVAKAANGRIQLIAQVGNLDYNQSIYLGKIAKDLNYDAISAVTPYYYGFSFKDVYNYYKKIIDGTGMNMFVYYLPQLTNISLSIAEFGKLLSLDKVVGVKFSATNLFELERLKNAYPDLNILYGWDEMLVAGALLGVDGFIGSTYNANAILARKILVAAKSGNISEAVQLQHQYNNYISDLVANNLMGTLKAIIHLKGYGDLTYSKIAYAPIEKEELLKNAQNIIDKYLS

In the case of `CC(=O)N[C@@H]1C(O)O[C@H](CO)[C@@H](O)[C@@H]1O` (stereo partly drawn) [ManNAc], the Km (MyNal [1]) is reported as 6.9 ± 0.5 mM.
Compound `CC(=O)N[C@H]1[C@H]([C@H](O)[C@H](O)CO)OC(O)(C(=O)O)C[C@@H]1O` (stereo partly drawn) [Neu5Ac] has a Km (MyNal [2]) of 1.8 ± 0.2 mM.
MyNal (Mycoplasma sp.) showed a Km (CC(=O)C(=O)O) of 5.9 ± 0.9 mM.
